Test results from ChEMBL document CHEMBL5724914, “Linking interpersonal differences in gut microbiota composition and drug biotransformation activity” (2024).

Columns and labels:
[1] = (§1) The drug is tested on Z-016 corresponding to mouse gut metagenome with ENA study accession number: PRJEB37062 and ENA sample accession number: ERS12561815 for biotransformation under anaerobic condition. The drug concentrations were measured over 9 timepoints collected between 0 and 24 hours of incubation by liquid-chromatography-coupled mass spectrometry (LC–MS); settings: 2 µM
[2] = as §1, with “Z-023” for “Z-016”, “to” for “to mouse gut”, “ERS12561822” for “ERS12561815”; settings: 2 µM
[3] = human gut metagenome, 24 h, 2 µM
[4] = human gut metagenome, 24 h, 2 µM; remark: listed apart in the source
[5] = as §1, with “WLS-038” for “Z-016”, “human” for “mouse”, “ERS12561745” for “ERS12561815”; settings: 2 µM
[6] = as §1, with “Z-009” for “Z-016”, “pig” for “mouse”, “ERS12561809” for “ERS12561815”; settings: 2 µM
[7] = human gut metagenome, 24 h, 2 µM; remark: listed apart in the source
[8] = human gut metagenome, 24 h, 2 µM; remark: listed apart in the source
[9] = human gut metagenome, 24 h, 2 µM; remark: listed apart in the source
[10] = as §1, with “Z-024” for “Z-016”, “pig” for “mouse”, “ERS12561823” for “ERS12561815”; settings: 2 µM
[11] = as §1, with “WLS-006” for “Z-016”, “human” for “mouse”, “ERS12561741” for “ERS12561815”; settings: 2 µM
[12] = as §1, with “Z-013” for “Z-016”, “rabbit” for “mouse”, “ERS12561813” for “ERS12561815”; settings: 2 µM
[13] = human gut metagenome, 24 h, 2 µM; remark: listed apart in the source
[14] = human gut metagenome, 24 h, 2 µM; remark: listed apart in the source
[15] = as §1, with “Z-005” for “Z-016”, “to” for “to mouse gut”, “ERS12561805” for “ERS12561815”; settings: 2 µM
[16] = as §1, with “Z-008” for “Z-016”, “to” for “to mouse gut”, “ERS12561808” for “ERS12561815”; settings: 2 µM
[17] = as §1, with “Z-020” for “Z-016”, “rabbit” for “mouse”, “ERS12561819” for “ERS12561815”; settings: 2 µM
[18] = as §1, with “Z-029” for “Z-016”, “rat” for “mouse”, “ERS12561828” for “ERS12561815”; settings: 2 µM
[19] = as §1, with “Z-006” for “Z-016”, “ERS12561806” for “ERS12561815”; settings: 2 µM
[20] = as §1, with “Z-012” for “Z-016”, “to” for “to mouse gut”, “ERS12561812” for “ERS12561815”; settings: 2 µM
Also: call rule not given here.

| Structure (SMILES) | Bacterial Biotransformation [1] | Bacterial Biotransformation [2] | Bacterial Biotransformation [3] | Bacterial Biotransformation [4] | Bacterial Biotransformation [5] | Bacterial Biotransformation [6] | Bacterial Biotransformation [7] | Bacterial Biotransformation [8] | Bacterial Biotransformation [9] | Bacterial Biotransformation [10] | Bacterial Biotransformation [11] | Bacterial Biotransformation [12] | Bacterial Biotransformation [13] | Bacterial Biotransformation [14] | Bacterial Biotransformation [15] | Bacterial Biotransformation [16] | Bacterial Biotransformation [17] | Bacterial Biotransformation [18] | Bacterial Biotransformation [19] | Bacterial Biotransformation [20] |
| --- | --- | --- | --- | --- | --- | --- | --- | --- | --- | --- | --- | --- | --- | --- | --- | --- | --- | --- | --- | --- |
| COc1ccc2c3c1O[C@H]1C[C@@H](O)C=C[C@@]31CCN(C)C2 [GALANTAMINE] | Compound NOT metabolized | Compound NOT metabolized | Compound NOT metabolized | Compound metabolized | Compound NOT metabolized | Compound NOT metabolized | Compound metabolized | Compound metabolized | Compound NOT metabolized | Compound NOT metabolized | Compound NOT metabolized | Compound NOT metabolized | Compound metabolized | Compound NOT metabolized | Compound NOT metabolized | Compound NOT metabolized | Compound NOT metabolized | Compound NOT metabolized | Compound NOT metabolized | Compound NOT metabolized |
| Cc1ccc(S(=O)(=O)NC(=O)NN2CC3CCCC3C2)cc1 (stereo not given) [GLICLAZIDE] | Compound metabolized | Compound metabolized | Compound NOT metabolized | Compound metabolized | Compound metabolized | Compound metabolized | Compound metabolized | Compound metabolized | Compound metabolized | Compound metabolized | Compound metabolized | Compound NOT metabolized | Compound metabolized | Compound metabolized | Compound metabolized | Compound NOT metabolized | Compound metabolized | Compound NOT metabolized | Compound metabolized | Compound metabolized |
| COC1=CC(=O)C[C@@H](C)[C@]12Oc1c(Cl)c(OC)cc(OC)c1C2=O [GRISEOFULVIN] | Compound metabolized | Compound metabolized | Compound metabolized | Compound metabolized | Compound metabolized | Compound metabolized | Compound metabolized | Compound metabolized | Compound metabolized | Compound metabolized | Compound metabolized | Compound metabolized | Compound metabolized | Compound NOT metabolized | Compound metabolized | Compound NOT metabolized | Compound NOT metabolized | Compound NOT metabolized | Compound metabolized | Compound metabolized |
| N#Cc1ccc(C(c2ccc(C#N)cc2)n2cncn2)cc1 [LETROZOLE] | Compound NOT metabolized | Compound metabolized | Compound NOT metabolized | Compound NOT metabolized | Compound NOT metabolized | Compound NOT metabolized | Compound NOT metabolized | Compound NOT metabolized | Compound NOT metabolized | Compound metabolized | Compound NOT metabolized | Compound NOT metabolized | Compound NOT metabolized | Compound NOT metabolized | Compound NOT metabolized | Compound NOT metabolized | Compound NOT metabolized | Compound metabolized | Compound NOT metabolized | Compound NOT metabolized |
| CN(C)C(=O)C(CCN1CCC(O)(c2ccc(Cl)cc2)CC1)(c1ccccc1)c1ccccc1 [LOPERAMIDE] | Compound metabolized | Compound metabolized | Compound metabolized | Compound metabolized | Compound metabolized | Compound metabolized | Compound metabolized | Compound metabolized | Compound metabolized | Compound metabolized | Compound metabolized | Compound metabolized | Compound metabolized | Compound metabolized | Compound metabolized | Compound NOT metabolized | Compound metabolized | Compound NOT metabolized | Compound metabolized | Compound metabolized |

Continued, values first:

| Bacterial Biotransformation [1] | Bacterial Biotransformation [2] | Bacterial Biotransformation [3] | Bacterial Biotransformation [4] | Bacterial Biotransformation [5] | Bacterial Biotransformation [6] | Bacterial Biotransformation [7] | Bacterial Biotransformation [8] | Bacterial Biotransformation [9] | Bacterial Biotransformation [10] | Bacterial Biotransformation [11] | Bacterial Biotransformation [12] | Bacterial Biotransformation [13] | Bacterial Biotransformation [14] | Bacterial Biotransformation [15] | Bacterial Biotransformation [16] | Bacterial Biotransformation [17] | Bacterial Biotransformation [18] | Bacterial Biotransformation [19] | Bacterial Biotransformation [20] | Structure (SMILES) |
| --- | --- | --- | --- | --- | --- | --- | --- | --- | --- | --- | --- | --- | --- | --- | --- | --- | --- | --- | --- | --- |
| Compound NOT metabolized | Compound NOT metabolized | Compound NOT metabolized | Compound metabolized | Compound NOT metabolized | Compound NOT metabolized | Compound metabolized | Compound metabolized | Compound metabolized | Compound NOT metabolized | Compound NOT metabolized | Compound NOT metabolized | Compound metabolized | Compound NOT metabolized | Compound NOT metabolized | Compound NOT metabolized | Compound NOT metabolized | Compound NOT metabolized | Compound NOT metabolized | Compound NOT metabolized | CC(Oc1c(Cl)cccc1Cl)C1=NCCN1 (stereo not given) [LOFEXIDINE] |
| Compound NOT metabolized | Compound metabolized | Compound metabolized | Compound metabolized | Compound NOT metabolized | Compound NOT metabolized | Compound metabolized | Compound metabolized | Compound metabolized | Compound NOT metabolized | Compound metabolized | Compound NOT metabolized | Compound metabolized | Compound metabolized | Compound NOT metabolized | Compound NOT metabolized | Compound NOT metabolized | Compound metabolized | Compound NOT metabolized | Compound NOT metabolized | CCCCc1nc(Cl)c(CO)n1Cc1ccc(-c2ccccc2-c2nn[nH]n2)cc1 [LOSARTAN] |
| Compound metabolized | Compound metabolized | Compound metabolized | Compound metabolized | Compound metabolized | Compound metabolized | Compound metabolized | Compound metabolized | Compound metabolized | Compound metabolized | Compound metabolized | Compound metabolized | Compound metabolized | Compound metabolized | Compound metabolized | Compound metabolized | Compound metabolized | Compound metabolized | Compound metabolized | Compound metabolized | COC(=O)Nc1nc2ccc(C(=O)c3ccccc3)cc2[nH]1 [MEBENDAZOLE] |
